In patent publication US8815882B2, “Pyrazole aminopyrimidine derivatives as LRRK2 modulators” (Genentech, Inc., priority 2010, dated 2014):
Where two headings read alike, the source gives them in different places.

Biological target: T1, LRRK2 (Homo sapiens, UniProt Q5S007, G2019S)
T1 construct: purchased Invitrogen PV4882 (lot 567054A)
Assay: In Vitro LRRK2 Assay (LabChip 3000, fluorescently-labeled peptide substrate, ATP)
Assay type: biochemical
Procedure, shortened: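 Read-out was LabChip capillary electrophoresis, resolving phospho- from non-phospho-peptide by fluorescence intensity. The kinase reaction combined enzyme, ATP, test compound and labeled peptide (4 μM working dilution) for 2 h in darkness before stop solution. Values were reported as Ki, from a tight-binding model with Et, S and Km, or as IC50 or percent inhibition.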

[1] = read-out: LRRK2 Ki (KI), Table 8
[2] = Table 10, LRRK2 Ki (micromolar), read-out: LRRK2 Ki (KI)
[3] = read-out: LRRK2 Ki (KI), Table 7
[4] = Table 9, LRRK2 Ki (micromolar), read-out: LRRK2 Ki (KI)

T1 sequence (Q5S007 whole entry G2019S): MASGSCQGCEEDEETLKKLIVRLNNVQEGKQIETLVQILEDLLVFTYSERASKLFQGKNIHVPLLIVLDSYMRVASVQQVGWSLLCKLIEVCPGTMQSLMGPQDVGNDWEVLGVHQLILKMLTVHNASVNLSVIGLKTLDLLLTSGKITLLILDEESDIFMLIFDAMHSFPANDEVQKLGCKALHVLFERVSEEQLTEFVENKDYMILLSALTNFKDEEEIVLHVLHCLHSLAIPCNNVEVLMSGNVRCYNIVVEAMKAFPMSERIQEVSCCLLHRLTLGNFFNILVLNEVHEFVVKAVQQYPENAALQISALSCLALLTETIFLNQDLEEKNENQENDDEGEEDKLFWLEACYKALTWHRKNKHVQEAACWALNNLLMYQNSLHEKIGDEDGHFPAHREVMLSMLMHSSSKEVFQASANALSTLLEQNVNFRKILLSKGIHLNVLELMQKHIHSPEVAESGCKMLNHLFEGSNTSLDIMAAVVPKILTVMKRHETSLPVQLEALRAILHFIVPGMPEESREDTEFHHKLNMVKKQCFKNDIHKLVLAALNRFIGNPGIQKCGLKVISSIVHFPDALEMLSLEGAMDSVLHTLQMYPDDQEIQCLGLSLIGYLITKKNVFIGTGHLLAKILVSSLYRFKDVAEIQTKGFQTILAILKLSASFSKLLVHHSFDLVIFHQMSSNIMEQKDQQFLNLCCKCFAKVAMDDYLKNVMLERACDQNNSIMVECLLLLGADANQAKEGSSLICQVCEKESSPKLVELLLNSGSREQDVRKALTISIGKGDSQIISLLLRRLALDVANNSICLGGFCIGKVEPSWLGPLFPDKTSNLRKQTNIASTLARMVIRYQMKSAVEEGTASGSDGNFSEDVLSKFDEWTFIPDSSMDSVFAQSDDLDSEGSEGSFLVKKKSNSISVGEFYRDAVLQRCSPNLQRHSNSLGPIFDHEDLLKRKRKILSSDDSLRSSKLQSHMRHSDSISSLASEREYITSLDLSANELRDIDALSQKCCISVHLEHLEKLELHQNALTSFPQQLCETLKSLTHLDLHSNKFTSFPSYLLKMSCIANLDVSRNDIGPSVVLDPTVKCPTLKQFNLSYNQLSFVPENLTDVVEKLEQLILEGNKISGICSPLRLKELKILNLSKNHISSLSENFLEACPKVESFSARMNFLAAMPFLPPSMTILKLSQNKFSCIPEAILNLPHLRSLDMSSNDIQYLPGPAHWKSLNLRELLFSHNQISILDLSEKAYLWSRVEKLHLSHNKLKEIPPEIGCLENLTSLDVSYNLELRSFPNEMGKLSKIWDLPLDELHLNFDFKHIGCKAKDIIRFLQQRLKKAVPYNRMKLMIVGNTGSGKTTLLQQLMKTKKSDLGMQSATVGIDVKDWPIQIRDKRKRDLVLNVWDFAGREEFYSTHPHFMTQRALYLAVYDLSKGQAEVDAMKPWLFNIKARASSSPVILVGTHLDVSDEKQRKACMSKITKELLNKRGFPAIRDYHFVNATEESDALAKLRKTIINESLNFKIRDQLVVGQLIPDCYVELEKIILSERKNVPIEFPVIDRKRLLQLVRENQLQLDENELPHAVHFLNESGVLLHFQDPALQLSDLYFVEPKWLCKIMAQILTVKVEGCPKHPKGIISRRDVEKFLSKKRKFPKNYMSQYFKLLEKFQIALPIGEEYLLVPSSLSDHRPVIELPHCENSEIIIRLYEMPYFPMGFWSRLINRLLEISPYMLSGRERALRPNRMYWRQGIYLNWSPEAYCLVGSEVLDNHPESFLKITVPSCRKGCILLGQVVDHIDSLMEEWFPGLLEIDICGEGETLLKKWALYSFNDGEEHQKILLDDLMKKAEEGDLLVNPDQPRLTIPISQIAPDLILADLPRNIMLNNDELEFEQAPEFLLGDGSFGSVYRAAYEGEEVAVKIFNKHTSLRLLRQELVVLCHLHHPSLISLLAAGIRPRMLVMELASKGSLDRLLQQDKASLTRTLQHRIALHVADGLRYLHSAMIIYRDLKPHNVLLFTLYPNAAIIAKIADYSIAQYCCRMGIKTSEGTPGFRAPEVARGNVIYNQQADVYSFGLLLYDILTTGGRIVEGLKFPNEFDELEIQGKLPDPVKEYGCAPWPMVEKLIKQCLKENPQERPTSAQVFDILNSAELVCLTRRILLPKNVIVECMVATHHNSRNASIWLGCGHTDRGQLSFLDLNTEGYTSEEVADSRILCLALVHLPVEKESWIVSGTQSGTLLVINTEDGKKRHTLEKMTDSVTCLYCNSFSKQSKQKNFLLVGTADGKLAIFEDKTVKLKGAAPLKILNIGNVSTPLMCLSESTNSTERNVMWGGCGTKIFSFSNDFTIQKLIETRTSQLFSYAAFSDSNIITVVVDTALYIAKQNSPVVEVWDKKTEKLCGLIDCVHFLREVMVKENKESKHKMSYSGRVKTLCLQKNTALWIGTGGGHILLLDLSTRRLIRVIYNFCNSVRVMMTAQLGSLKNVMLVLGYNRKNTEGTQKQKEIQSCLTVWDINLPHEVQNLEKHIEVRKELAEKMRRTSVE

Compound	Ki [1] [nM]	further results
CNc1nc(Nc2cnn(Cc3ccccn3)c2C)ncc1C(F)(F)F [Example 212, N4-methyl-N2-(5-methyl-1-(pyridin-2-ylmethyl)-1H-pyrazol-4-yl)-5-(trifluoromethyl) pyrimidine-2,4-diamine]	2.9	–
CCNC(=O)C1(n2ncc(Nc3ncc(C(F)(F)F)c(NC)n3)c2C)CCC1 [Example 442, 1-[5-Methyl-4-(4-methylamino-5-trifluoromethyl-pyrimidin-2-ylamino)-pyrazol-1-yl]-cyclobutane-carboxylic acid ethylamide]	–	Ki [2]: 15.6 nM
CNc1nc(Nc2cnn(CC3CC3)c2C)ncc1C(F)(F)F [Example 165, N2-(1-(cyclopropyl-methyl)-5-methyl-1H-pyrazol-4-yl)-N4-methyl-5-(trifluoromethyl) pyrimidine-2,4-diamine]	1.2	–
CNc1nc(Nc2cn(C3CN(C(C)C)C3)nc2C)ncc1C(F)(F)F [Example 214, N2-(1-(1-isopropylazetidin-3-yl)-3-methyl-1H-pyrazol-4-yl)-N4-methyl-5-(trifluoromethyl) pyrimidine-2,4-diamine]	64	–
CNC(=O)C(C)(C)n1cc(Nc2ncc(C(F)(F)F)c(NC)n2)c(C)n1 [Example 432, N,2-dimethyl-2-(3-methyl-4-(4-(methylamino)-5-(trifluoromethyl)pyrimidin-2-ylamino)-1H-pyrazol-1-yl)propanamide]	–	Ki [2]: 18.4 nM
CNc1nc(Nc2cn(C(C)(C)C#N)nc2C)ncc1C(F)(F)F [Example 394, 2-methyl-2-(3-methyl-4-(4-(methylamino)-5-(trifluoromethyl)pyrimidin-2-ylamino)-1H-pyrazol-1-yl)propanenitrile]	–	Ki (read-out: LRRK2 Ki given in the example): 0.5 nM
CCNc1nc(Nc2cn(C3CN(C4COC4)C3)nc2C)ncc1C(F)(F)F [Example 182, N4-ethyl-N2-(3-methyl-1-(1-(oxetan-3-yl)azetidin-3-yl)-1H-pyrazol-4-yl)-5-(trifluoromethyl) pyrimidine-2,4-diamine]	1.5	–
CNc1nc(Nc2cnn(C3CN(C(C)C)C3)c2C)ncc1C(F)(F)F [Example 278, N2-[1-(1-Isopropyl-azetidin-3-yl)-5-methyl-1H-pyrazol-4-yl]-N4-methyl-5-trifluoromethyl-pyrimidine-2,4-diamine]	1.2	–
CNc1nc(Nc2cn(C3COC3)nc2C)ncc1Cl [Example 27, 5-Chloro-N^4-methyl-N^2-(3-methyl-1-(oxetan-3-yl)-1H-pyrazol-4-yl)pyrimidine-2,4-diamine]	–	Ki [3]: 8.8 nM
CNc1nc(Nc2cnn(C3CCOCC3)c2Cl)ncc1C#N [Example 383, 2-(5-chloro-1-(tetrahydro-2H-pyran-4-yl)-1H-pyrazol-4-ylamino)-4-(methylamino) pyrimidine-5-carbonitrile]	–	Ki [4]: 9.6 nM
CNc1nc(Nc2cn(C3CCS(=O)(=O)CC3)nc2C)ncc1C(F)(F)F [Example 273, N2-[1-(1,1-Dioxo-hexahydro-1$1%6&- thiopyran-4-yl)-3-methyl-1H-pyrazol-4-yl]-N4-mcthyl-5-trifluoromethyl-pyrimidine-2,4-diamine]	37	–
CNc1nc(Nc2cn(C3CCN(CC(F)(F)F)CC3)nc2C)ncc1C(F)(F)F [Example 92, N4-methyl-N2-(3-methyl-1-(1-(2,2,2-trifluoroethyl)piperidin-4-yl)-1H-pyrazol-4-yl)-5-(trifluoromethyl) pyrimidine-2,4-diamine]	46	–
COc1nc(Nc2cn(C(C)(C)C#N)nc2C2CC2)ncc1Cl [Example 438, 2-[4-(5-Chloro-4-methoxy-pyrimidin-2-ylamino)-3-cyclopropyl-pyrazol-1-yl]-2-methyl-propionitrile]	–	Ki [2]: 5.8 nM
CNc1nc(Nc2cnn(-c3ccc(S(=O)(=O)C4CC4)cc3)c2C)ncc1C(F)(F)F [Example 167, N2-(1-(4-(cyclopropyl-sulfonyl)phenyl)-5-methyl-1H-pyrazol-4-yl)-N4-methyl-5-(trifluoromethyl) pyrimidine-2,4-diamine]	18.8	–
CNc1nc(Nc2cnn(C(C)(C)C#N)c2C)ncc1C(F)(F)F [Example 401, 2-methyl-2-(5-methyl-4-(4-(methylamino)-5-(trifluoromethyl)pyrimidin-2-ylamino)-1H-pyrazol-1-yl)propanenitrile]	–	Ki [2]: 0.7 nM
COC(=O)C(C)(C)n1cc(Nc2ncc(Cl)c(OC)n2)c(C)n1 [Example 435, 2-[4-(5-Chloro-4-methoxy-pyrimidin-2-ylamino)-3-methyl-pyrazol-1-yl]-2-methyl-propionic acid methyl ester]	–	Ki [2]: 35.5 nM
CCNC(=O)C(C)(C)n1ncc(Nc2ncc(C(F)(F)F)c(NC)n2)c1Cl [Example 425, 2-(5-chloro-4-(4-(methylamino)-5-(trifluoromethyl)pyrimidin-2-ylamino)-1H-pyrazol-1-yl)-N-ethyl-2-methyl propanamide]	–	Ki [2]: 35.5 nM
CNc1nc(Nc2cnn(C3CCN(CC(F)(F)F)CC3)c2C)ncc1C(F)(F)F [Example 91, N4-methyl-N2-(5-methyl-1-(1-(2,2,2-trifluoroethyl)piperidin-4-yl)-1H-pyrazol-4-yl)-5-(trifluoromethyl) pyrimidine-2,4-diamine]	4.1	–
CCNc1nc(Nc2cn(CC3(C)COC3)nc2C)ncc1C(F)(F)F [Example 144, N4-ethyl-N2-(3-methyl-1-((3-methyloxetan-3-yl)methyl)-1H-pyrazol-4-yl)-5-(trifluoromethyl) pyrimidine-2,4-diamine]	0.9	–

Compound	Ki [1] [nM]	further results
CNc1nc(Nc2cn(C(C)(C)C#N)nc2C)ncc1Cl [Example 417, 2-(4-(5-chloro-4-(methylamino)pyrimidin-2-ylamino)-3-methyl-1H-pyrazol-1-yl)-2-methylpropanenitrile]	–	Ki [2]: 2.1 nM
CNc1nc(Nc2cnn(Cc3cccnn3)c2C)ncc1C(F)(F)F [Example 309, N4-Methyl-N2-(5-methyl-1-pyridazin-3-ylmethyl-1H-pyrazol-4-yl)-5-trifluoromethyl-pyrimidine-2,4-diamine]	2.8	–
CCNc1nc(Nc2cnn(CC)c2C)ncc1Br [Example 107, 5-bromo-N4-ethyl-N2-(1-ethyl-5-methyl-1H-pyrazol-4-yl)pyrimidine-2,4-diamine]	0.43	–
Cc1c(Nc2ncc(C#N)c(OCC(F)F)n2)cnn1C [Example 391, 4-(2,2-Difluoro-ethoxy)-2-(1,5-dimethyl-1H-pyrazol-4-ylamino)-pyrimidine-5-carbonitrile]	–	Ki [4]: 211 nM
CNc1nc(Nc2ccnn2C)ncc1F [Example 35, 5-Fluoro-N^4-methyl-N^2-(2-methyl-2H-pyrazol-3-yl)-pyrimidine-2,4-diamine]	–	Ki [3]: 267 nM
CCNc1nc(Nc2cnn(-c3ccc(S(C)(=O)=O)cc3)c2C)ncc1C(F)(F)F [Example 163, N4-ethyl-N2-(5-methyl-1-(4-(methylsulfonyl)phenyl)-1H-pyrazol-4-yl)-5-(trifluoromethyl) pyrimidine-2,4-diamine]	0.3	–
CCNc1nc(Nc2cnn(C3CCOCC3)c2C)ncc1C(F)(F)F [Example 158, N4-ethyl-N2-(5-methyl-1-(tetrahydro-2H-pyran-4-yl)-1H-pyrazol-4-yl)-5-(trifluoromethyl) pyrimidine-2,4-diamine]	0.3	–
CCNc1nc(Nc2cnn(CC(C)(C)O)c2C)ncc1C(F)(F)F [Example 296, 1-[4-(4-Ethylamino-5-trifluoromethyl-pyrimidin-2-ylamino)-5-methyl-pyrazol-1-yl]-2-methyl-propan-2-ol]	2.3	–
COc1nc(Nc2cnn(-c3ccccc3)c2C)ncc1Cl [Example 56, 5-chloro-4-methoxy-N-(5-methyl-1-phenyl-1H-pyrazol-4-yl)pyrimidin-2-amine]	–	Ki [3]: 27 nM
CNc1nc(Nc2cnn(Cc3ccn(C)n3)c2C)ncc1C(F)(F)F [Example 324, N4-Methyl-N2-[5-methyl-1-(1-methyl-1H-pyrazol-3-ylmethyl)-1H-pyrazol-4-yl]-5-trifluoromethyl-pyrimidine-2,4-diamine]	0.6	–
CCNc1nc(Nc2cnn(-c3ccc(S(=O)(=O)C4CC4)cc3)c2C)ncc1C(F)(F)F [Example 174, N2-(1-(4-(cyclopropyl-sulfonyl)phenyl)-5-methyl-1H-pyrazol-4-yl)-N4-ethyl-5-(trifluoromethyl) pyrimidine-2,4-diamine]	1.1	–
CNc1nc(Nc2cn(C(C)(C)C(=O)NCC(F)(F)F)nc2C)ncc1C(F)(F)F [Example 424]	–	Ki [2]: 6.3 nM
CNc1nc(Nc2cnn(C(C)(C)C(=O)N3CCCC3)c2C)ncc1C(F)(F)F [Example 400, 2-methyl-2-(5-methyl-4-(4-(methylamino)-5-(trifluoromethyl)pyrimidin-2-ylamino)-1H-pyrazol-1-yl)-1-(pyrrolidin-1-yl)propan-1-one]	–	Ki [2]: 404 nM
CNc1nc(Nc2cn(Cc3ccn(C)n3)nc2C)ncc1C(F)(F)F [Example 325, N4-Methyl-N2-[3-methyl-1-(1-methyl-1H-pyrazol-3-ylmethyl)-1H-pyrazol-4-yl]-5-trifluoromethyl-pyrimidine-2,4-diamine]	3.8	–
CCCn1cc(Nc2ncc(Br)c(NC)n2)c(C)n1 [Example 113, 5-bromo-N4-methyl-N2-(3-methyl-1-propyl-1H-pyrazol-4-yl)pyrimidine-2,4-diamine]	12	–
CCNc1nc(Nc2cn(-c3ccc(S(C)(=O)=O)cc3)nc2C)ncc1C(F)(F)F [Example 266, N4-Ethyl-N2-[1-(4-methanesulfonyl-phenyl)-3-methyl-1H-pyrazol-4-yl]-5-trifluoromethyl-pyrimidine-2,4-diamine]	2.1	–
COc1nc(Nc2cnn(S(=O)(=O)C3CC3)c2C)ncc1Cl [Example 70, 5-chloro-N-(1-(cyclopropyl-sulfonyl)-5-methyl-1H-pyrazol-4-yl)-4-methoxy-pyrimidin-2-amine]	–	Ki [3]: 15 nM
CCNc1nc(Nc2cnn(S(=O)(=O)CC)c2C)ncc1C(F)(F)F [Example 244, N4-ethyl-N2-(1-(ethylsulfonyl)-5-methyl-1H-pyrazol-4-yl)-5-(trifluoromethyl) pyrimidine-2,4-diamine]	4.7	–
